Results: patent publication US20250127801A1, “BRIDGED TRICYCLIC CARBAMOYLPYRIDONE COMPOUNDS AND USES THEREOF” (priority 2023, published 2025)
pEC50: −log10 of the molar value. ≈ marks a conversion by molar mass, not a printed value. Like-named read-outs stand apart in the source and are kept apart here.

Key:
in vitro = settings: human; for CC50 at 5 days: uninfected MT-4 cells
HIV-1 (IIIB) = test: microbe, parasite or virus in culture; assay type: cell-based; settings: for EC50: Human immunodeficiency virus 1, IIIB, MT4, 120 h, read-out: MT4 EC50 (nM); for pEC50: Human immunodeficiency virus 1, MT4, 120 h, HIV-1 (IIIB) replication in MT-4 cells, 5 days incubation, Cell Titer Glo, read-out: MT4 EC50
physchem = settings: 23 °C, thermodynamic from solid; for solubility thermodynamic: fassif; for solubility thermodynamic at 24 h: FaSSIF

CC1=NO[C@@]2(CC[C@H](C)N3C[C@H]2n2cc(C(=O)NCc4ccc(F)cc4F)c(=O)c(OC(=O)N(C)c4ncccc4COP(=O)(O)O)c2C3=O)C1 [Compound 1, (3′S,5S,7′R)-10′-((2,4-difluorobenzyl)carbamoyl)-3,3′-dimethyl-1′,11′-dioxo-1′,4′,5′,11′-tetrahydro-3′H,4H,7′H-spiro[isoxazole-5,6′-[2,7]methanopyrido[1,2-a][1,4]diazonin]-12′-yl methyl(3-((phosphonooxy)methyl)pyridin-2-yl)carbamate]
CC50 (in vitro): 15900 nM | EC50 (HIV-1 (IIIB)): 3.48 nM | solubility thermodynamic (physchem): 4900 µg/mL (≈ 6.71 mM)

CC1=NO[C@@]2(CC[C@H](C)N3C[C@H]2n2cc(C(=O)NCc4ccc(F)cc4F)c(=O)c(OCOC(=O)N(C)c4ncccc4COP(=O)(O)O)c2C3=O)C1 [Compound 2, (((3′S,5S,7′R)-10′-((2,4-difluorobenzyl)carbamoyl)-3,3′-dimethyl-1′,11′-dioxo-1′,4′,5′,11′-tetrahydro-3′H,4H,7′H-spiro[isoxazole-5,6′-[2,7]methanopyrido[1,2-a][1,4]diazonin]-12′-yl)oxy)methyl methyl(3-((phosphonooxy)methyl)pyridin-2-yl)carbamate]
CC50 at 5 days (in vitro): 10200 nM | pEC50 (HIV-1 (IIIB)): 8.83 | solubility thermodynamic at 24 h (physchem): 4950 µg/mL (≈ 6.51 mM)

COC1=NO[C@@]2(CC[C@H](C)N3C[C@H]2n2cc(C(=O)NCc4ccc(F)cc4F)c(=O)c(OCOC(=O)N(C)c4ncccc4COP(=O)(O)O)c2C3=O)C1 [Compound 3, (((3′S,5S,7′R)-10′-((2,4-difluorobenzyl)carbamoyl)-3-methoxy-3′-methyl-1′,11′-dioxo-1′,4′,5′,11′-tetrahydro-3′H,4H,7′H-spiro[isoxazole-5,6′-[2,7]methanopyrido[1,2-a][1,4]diazonin]-12′-yl)oxy)methylmethyl(3-((phosphonooxy)methyl)pyridin-2-yl)carbamate]
CC50 at 5 days (in vitro): 12600 nM | pEC50 (HIV-1 (IIIB)): 8.67 | solubility thermodynamic at 24 h (physchem): 5410 µg/mL (≈ 6.97 mM)

CC1=NO[C@@]2(CC[C@H](C)N3C[C@H]2n2cc(C(=O)NCc4ccc(F)cc4F)c(=O)c(OC(=O)N(C)c4ncc(C(=O)O)cc4COP(=O)(O)O)c2C3=O)C1 [Compound 4, 6-(((((3′S,5S,7′R)-10′-((2,4-difluorobenzyl)carbamoyl)-3,3′-dimethyl-1′,11′-dioxo-1′,4′,5′,11′-tetrahydro-3′H,4H,7′H-spiro[isoxazole-5,6′-[2,7]methanopyrido[1,2-a][1,4]diazonin]-12′-yl)oxy)carbonyl)(methyl)amino)-5-((phosphonooxy)methyl)nicotinic acid]
CC50 (in vitro): ≥ 50000 nM | EC50 (HIV-1 (IIIB)): 14.8 nM | solubility thermodynamic (physchem): 4800 µg/mL (≈ 6.2 mM)

CC1=NO[C@@]2(CC[C@H](C)N3C[C@H]2n2cc(C(=O)NCc4ccc(F)cc4F)c(=O)c(OC(=O)N(C)c4ncccc4CN(CC(=O)OC(C)(C)C)C(=O)OCOP(=O)(O)O)c2C3=O)C1 [Compound 5, tert-butyl N-((2-(((((3′S,5S,7′R)-10′-((2,4-difluorobenzyl)carbamoyl)-3,3′-dimethyl-1′,11′-dioxo-1′,4′,5′,11′-tetrahydro-3′H,4H,7′H-spiro[isoxazole-5,6′-[2,7]methanopyrido[1,2-a][1,4]diazonin]-12′-yl)oxy)carbonyl)(methyl)amino)pyridin-3-yl)methyl)-N-(((phosphonooxy)methoxy)carbonyl)glycinate]
CC50 (in vitro): 10300 nM | EC50 (HIV-1 (IIIB)): 1.24 nM | solubility thermodynamic (physchem): 4010 µg/mL (≈ 4.37 mM)

CC1=NO[C@@]2(CC[C@H](C)N3C[C@H]2n2cc(C(=O)NCc4ccc(F)cc4F)c(=O)c(OC(=O)N(C)c4ncccc4CN(CC(=O)O)C(=O)OCOP(=O)(O)O)c2C3=O)C1 [Compound 6, N-((2-(((((3′S,5S,7′R)-10′-((2,4-difluorobenzyl)carbamoyl)-3,3′-dimethyl-1′,11′-dioxo-1′,4′,5′,11′-tetrahydro-3′H,4H,7′H-spiro[isoxazole-5,6′-[2,7]methanopyrido[1,2-a][1,4]diazonin]-12′-yl)oxy)carbonyl)(methyl)amino)pyridin-3-yl)methyl)-N-(((phosphonooxy)methoxy)carbonyl)glycine]
CC50 (in vitro): 10100 nM | EC50 (HIV-1 (IIIB)): 0.917 nM | solubility thermodynamic (physchem): 4810 µg/mL (≈ 5.58 mM)

CC1=NO[C@@]2(CC[C@H](C)N3C[C@H]2n2cc(C(=O)NCc4ccc(F)cc4F)c(=O)c(OCOC(=O)N(C)c4ncccc4CN(CC(=O)O)C(=O)OCOP(=O)(O)O)c2C3=O)C1 [Compound 7, N-((2-((((((3′S,5S,7′R)-10′-((2,4-difluorobenzyl)carbamoyl)-3,3′-dimethyl-1′,11′-dioxo-1′,4′,5′,11′-tetrahydro-3′H,4H,7′H-spiro[isoxazole-5,6′-[2,7]methanopyrido[1,2-a][1,4]diazonin]-12′-yl)oxy)methoxy)carbonyl)(methyl)amino)-pyridin-3-yl)methyl)-N-(((phosphonooxy)methoxy)carbonyl)glycine]
CC50 at 5 days (in vitro): 10800 nM | pEC50 (HIV-1 (IIIB)): 8.83 | solubility thermodynamic at 24 h (physchem): 4660 µg/mL (≈ 5.22 mM)

CC1=NO[C@@]2(CC[C@H](C)N3C[C@H]2n2cc(C(=O)NCc4ccc(F)cc4F)c(=O)c(OC(=O)N(C)c4ncc(C(=O)O)cc4CN(CC(=O)O)C(=O)OCOP(=O)(O)O)c2C3=O)C1 [Compound 8, 5-(((carboxymethyl)(((phosphonooxy)methoxy)carbonyl)amino)methyl)-6-(((((3′S,5S,7′R)-10′-((2,4-difluorobenzyl)carbamoyl)-3,3′-dimethyl-1′,11′-dioxo-1′,4′,5′,11′-tetrahydro-3′H,4H,7′H-spiro[isoxazole-5,6′-[2,7]methanopyrido[1,2-a][1,4]diazonin]-12′-yl)oxy)carbonyl)(methyl)amino)nicotinic acid]
CC50 (in vitro): 10400 nM | EC50 (HIV-1 (IIIB)): 0.982 nM | solubility thermodynamic (physchem): 4800 µg/mL (≈ 5.3 mM)

CNCC(=O)OCc1cccnc1N(C)C(=O)OCOc1c2n(cc(C(=O)NCc3ccc(F)cc3F)c1=O)[C@@H]1CN(C2=O)[C@@H](C)CC[C@]12CC(C)=NO2 [Compound 9, (2-((((((3′S,5S,7′R)-10′-((2,4-difluorobenzyl)carbamoyl)-3,3′-dimethyl-1′11′-dioxo-1′,4′,5′,11′-tetrahydro-3′H,4H,7′H-spiro[isoxazole-5,6′-[2,7]methanopyrido[1,2-a][1,4]diazonin]-12′-yl)oxy)methoxy)carbonyl)(methyl)amino)pyridin-3-yl)methyl methylglycinate]
CC50 at 5 days (in vitro): 10500 nM | pEC50 (HIV-1 (IIIB)): 8.85 | solubility thermodynamic at 24 h (physchem): 3240 µg/mL (≈ 4.3 mM)

CC1=NO[C@@]2(CC[C@H](C)N3C[C@H]2n2cc(C(=O)NCc4ccc(F)cc4F)c(=O)c(OCOC(=O)N(C)c4ncccc4COC(=O)[C@@H](N)CCCCN)c2C3=O)C1 [Compound 10, (2-((((((3′S,5S,7′R)-10′-((2,4-difluorobenzyl)carbamoyl)-3,3′-dimethyl-1′,11′-dioxo-1′,4′,5′,11′-tetrahydro-3′H,4H,7′H-spiro[isoxazole-5,6′-[2,7]methanopyrido[1,2-a][1,4]diazonin]-12′-yl)oxy)methoxy)carbonyl)(methyl)amino)pyridin-3-yl)methyl L-lysinate]
CC50 at 5 days (in vitro): 10200 nM | pEC50 (HIV-1 (IIIB)): 8.50 | solubility thermodynamic at 24 h (physchem): 3320 µg/mL (≈ 4.11 mM)

CC1=NO[C@@]2(CC[C@H](C)N3C[C@H]2n2cc(C(=O)NCc4ccc(F)cc4F)c(=O)c(OCOC(=O)N(C)c4ncccc4COC(=O)[C@H](C)N)c2C3=O)C1 [Compound 11, (2-((((((3′S,5S,7′R)-10′-((2,4-difluorobenzyl)carbamoyl)-3,3′-dimethyl-1′,11′-dioxo-1′,4′,5′,11′-tetrahydro-3′H,4H,7′H-spiro[isoxazole-5,6′-[2,7]methanopyrido[1,2-a][1,4]diazonin]-12′-yl)oxy)methoxy)carbonyl)(methyl)amino)pyridin-3-yl)methyl L-alaninate]
CC50 at 5 days (in vitro): 14500 nM | pEC50 (HIV-1 (IIIB)): 8.72 | solubility thermodynamic at 24 h (physchem): 2 µg/mL (≈ 0.00266 mM)

CC1=NO[C@@]2(CC[C@H](C)N3C[C@H]2n2cc(C(=O)NCc4ccc(F)cc4F)c(=O)c(OC(=O)OCc4ccccc4OP(=O)(O)O)c2C3=O)C1 [Compound 32, (3′S,5S,7′R)-10′-((2,4-difluorobenzyl)carbamoyl)-3,3′-dimethyl-1′,11′-dioxo-1′,4′,5′,11′-tetrahydro-3′H,4H,7′H-spiro[isoxazole-5,6′-[2,7]methanopyrido[1,2-a][1,4]diazonin]-12′-yl (2-(phosphonooxy)benzyl) carbonate]
solubility thermodynamic (physchem): 1330 µg/mL (≈ 1.86 mM)

CCCCCCCCCCCCCC(=O)OCc1ccccc1C(=O)Oc1c2n(cc(C(=O)NCc3ccc(F)cc3F)c1=O)[C@@H]1CN(C2=O)[C@@H](C)CC[C@]12CC(OC)=NO2 [Compound 91, (3′S,5S,7′R)-10′-((2,4-difluorobenzyl)carbamoyl)-3-methoxy-3′-methyl-1′,11′-dioxo-1′,4′,5′,11′-tetrahydro-3′H,4H,7′H-spiro[isoxazole-5,6′-[2,7]methanopyrido[1,2-a][1,4]diazonin]-12′-yl 2-((tetradecanoyloxy)methyl)benzoate]
CC50 at 5 days (in vitro): ≥ 50000 nM | pEC50 (HIV-1 (IIIB)): 8.30

CCCCCCCCCCCCCC(=O)Oc1ccc(CC(=O)Oc2c3n(cc(C(=O)NCc4ccc(F)cc4F)c2=O)[C@@H]2CN(C3=O)[C@@H](C)CC[C@]23CC(OC)=NO3)cc1 [Compound 95, [4-[2-[(1R,10S,13S)-4-[(2,4-difluorophenyl)methylcarbamoyl]-3′-methoxy-10-methyl-5,8-dioxo-spiro[2,9-diazatricyclo[7.4.1.02,7]tetradeca-3,6-diene-13,5′-4H-isoxazole]-6-yl]oxy-2-oxo-ethyl]phenyl] tetradecanoate]
CC50 at 5 days (in vitro): ≥ 50000 nM | pEC50 (HIV-1 (IIIB)): 8.46

COC1=NO[C@@]2(CC[C@H](C)N3C[C@H]2n2cc(C(=O)NCc4ccc(F)cc4F)c(=O)c(OCc4oc(=O)oc4C)c2C3=O)C1 [Compound 103, (3′S,5S,7′R)—N-(2,4-difluorobenzyl)-3-methoxy-3′-methyl-12′-((5-methyl-2-oxo-1,3-dioxol-4-yl)methoxy)-1′,11′-dioxo-1′,4′,5′,11′-tetrahydro-3′H,4H,7′H-spiro[isoxazole-5,6′-[2,7]methanopyrido[1,2-a][1,4]diazonine]-10′-carboxamide]
CC50 at 5 days (in vitro): 18900 nM | pEC50 (HIV-1 (IIIB)): 8.72
